{"source": "ChEMBL document CHEMBL5537118", "about": "“Synthesis of cinnamoyl tethered indoline derivatives with anti-inflammatory and antioxidant activities” (Eur J Med Chem, 2024)", "key": {"RAW264.7 [1]": {"tested_on": "RAW264.7", "assay": "Antioxidant activity in LPS-induced mouse RAW264.7 cells assessed as upregulation of HO-1 protein expression incubated for 24 hrs by Western blot analysis", "format": "functional, cell-based", "conditions": "dose 0.5-2 µM"}, "RAW264.7 [2]": {"tested_on": "RAW264.7", "assay": "Antiinflammatory activity in LPS-induced mouse RAW264.7 cells assessed as inhibition of NO production at 2 to 10 uM pretreated for 1 hr followed by LPS addition and measured after 24 hrs by griess reagent based assay", "format": "functional, cell-based", "conditions": "dose 2-10 µM, time 25.0 hrs"}, "Mus musculus [3]": {"tested_on": "Mus musculus", "assay": "Antiinflammatory activity in carrageenan-induced Kunming mouse model of paw edema assessed as edema inhibition at 1 mg/kg, ip pretreated for 1 hr followed by carrageenan administration and measured after 3 hrs relative to control", "format": "functional", "conditions": "time 4 hrs"}, "Mus musculus [4]": {"tested_on": "Mus musculus", "assay": "Antiinflammatory activity in carrageenan-induced Kunming mouse model of paw edema assessed as paw volume at 10 mg/kg, ip pretreated for 1 hr followed by carrageenan administration and measured after 3 hrs by digital plethysmometer (reference value: 0.377 +/- 0.018 mL)", "format": "functional", "conditions": "time 4 hrs"}, "Mus musculus [5]": {"tested_on": "Mus musculus", "assay": "Antiinflammatory activity in carrageenan-induced Kunming mouse model of paw edema assessed as paw volume at 30 mg/kg, ip pretreated for 1 hr followed by carrageenan administration and measured after 3 hrs by digital plethysmometer (reference value: 0.377 +/- 0.018 mL)", "format": "functional", "conditions": "time 4 hrs"}, "RAW264.7 [6]": {"tested_on": "RAW264.7", "assay": "Inhibition of NF-kappaB activation in LPS-induced mouse RAW264.7 cells assessed as inhibition of p65 phosphorylation by measuring reduction in p-p65/p65 expression at 0.5 to 2 uM by Western blot analysis", "format": "cell-based", "conditions": "dose 0.5-2 µM"}, "Mus musculus [7]": {"tested_on": "Mus musculus", "assay": "Antioxidant activity in ip dosed carrageenan-induced Kunming mouse model of paw edema assessed as increase in HO-1 protein expression in paw tissue pretreated for 1 hr followed by carrageenan administration and measured after 5 hrs by Western blot analysis", "format": "functional, organism-based", "conditions": "dose 1-30 mg/kg, time 6.0 hrs"}, "Mus musculus [8]": {"tested_on": "Mus musculus", "assay": "Antiinflammatory activity in carrageenan-induced Kunming mouse model of paw edema assessed as paw volume at 30 mg/kg, IG pretreated for 1 hr followed by carrageenan administration and measured after 3 hrs by digital plethysmometer (reference value: 0.365 +/- 0.044 mL)", "format": "functional", "conditions": "time 4 hrs"}, "RAW264.7 [9]": {"tested_on": "RAW264.7", "assay": "Antioxidant activity in H2O2-stimulated mouse RAW264.7 cells assessed as protection against cell damage at 2 to 5 uM pretreated for 30 mins followed by H2O2 stimulation and measured after 4 hrs by MTT assay", "format": "functional, cell-based", "conditions": "dose 2-5 µM, time 4.5 hrs"}, "Mus musculus [10]": {"tested_on": "Mus musculus", "assay": "Antiinflammatory activity in carrageenan-induced Kunming mouse model of paw edema assessed as reduction in iNOS protein expression in paw tissue at 1 to 30 mg/kg, ip pretreated for 1 hr followed by carrageenan administration and measured after 5 hrs by Western blot analysis", "format": "functional, organism-based", "conditions": "dose 1-30 mg/kg, time 6.0 hrs"}, "Mus musculus [11]": {"tested_on": "Mus musculus", "assay": "Antiinflammatory activity in carrageenan-induced Kunming mouse model of paw edema assessed as paw volume at 1 mg/kg, ip pretreated for 1 hr followed by carrageenan administration and measured immediately by digital plethysmometer (reference value: 0.116 +/- 0.042 mL)", "format": "functional"}, "RAW264.7 [12]": {"tested_on": "RAW264.7", "assay": "Effect on p65 total protein expression in LPS-induced mouse RAW264.7 cells at 0.5 to 2 uM by Western blot analysis", "format": "functional, cell-based", "conditions": "dose 0.5-2 µM"}, "RAW264.7 [13]": {"tested_on": "RAW264.7", "assay": "Antioxidant activity in H2O2-stimulated mouse RAW264.7 cells assessed as protection against cell damage at 2 uM pretreated for 30 mins followed by H2O2 stimulation and measured after 4 hrs by MTT assay relative to control", "format": "functional", "conditions": "time 4.5 hrs"}, "RAW264.7 [14]": {"tested_on": "RAW264.7", "assay": "Antiinflammatory activity in LPS-induced mouse RAW264.7 cells assessed as reduction in IL-6 level incubated for 24 hrs by ELISA", "format": "functional, cell-based"}, "Mus musculus [15]": {"tested_on": "Mus musculus", "assay": "Antiinflammatory activity in carrageenan-induced Kunming mouse model of paw edema assessed as paw volume at 10 mg/kg, ip pretreated for 1 hr followed by carrageenan administration and measured after 1 hr by digital plethysmometer (reference value: 0.395 +/- 0.017 mL)", "format": "functional", "conditions": "time 2 hrs"}, "RAW264.7 [16]": {"tested_on": "RAW264.7", "assay": "Inhibition of NF-kappaB activation in LPS-induced mouse RAW264.7 cells assessed as reduction in IkappaBalpha degradation at 0.5 to 2 uM by Western blot analysis", "format": "cell-based", "conditions": "dose 0.5-2 µM"}, "Mus musculus [17]": {"tested_on": "Mus musculus", "assay": "Antiinflammatory activity in carrageenan-induced Kunming mouse model of paw edema assessed as edema inhibition at 30 mg/kg, IG pretreated for 1 hr followed by carrageenan administration and measured after 5 hrs relative to control", "format": "functional", "conditions": "po, time 6 hrs"}, "Mus musculus [18]": {"tested_on": "Mus musculus", "assay": "Antiinflammatory activity in carrageenan-induced Kunming mouse model of paw edema assessed as edema inhibition at 10 mg/kg, ip pretreated for 1 hr followed by carrageenan administration and measured after 5 hrs relative to control", "format": "functional", "conditions": "time 6 hrs"}, "Mus musculus [19]": {"tested_on": "Mus musculus", "assay": "Antiinflammatory activity in carrageenan-induced Kunming mouse model of paw edema assessed as paw volume at 30 mg/kg, IG pretreated for 1 hr followed by carrageenan administration and measured immediately by digital plethysmometer (reference value: 0.144 +/- 0.026 mL)", "format": "functional"}, "Mus musculus [20]": {"tested_on": "Mus musculus", "assay": "Antiinflammatory activity in carrageenan-induced Kunming mouse model of paw edema assessed as paw volume at 10 mg/kg, ip pretreated for 1 hr followed by carrageenan administration and measured immediately by digital plethysmometer (reference value: 0.116 +/- 0.042 mL)", "format": "functional"}, "[21]": {"assay": "Cytotoxicity against mouse RAW264.7 cells assessed as cell viability at 2 to 10 uM measured after 24 hrs", "format": "toxicity, cell-based", "conditions": "dose 2-10 µM, read-out: Activity"}, "Mus musculus [22]": {"tested_on": "Mus musculus", "assay": "Antiinflammatory activity in carrageenan-induced Kunming mouse model of paw edema assessed as paw volume at 30 mg/kg, ip pretreated for 1 hr followed by carrageenan administration and measured after 1 hr by digital plethysmometer (reference value: 0.395 +/- 0.017 mL)", "format": "functional", "conditions": "time 2 hrs"}, "Mus musculus [23]": {"tested_on": "Mus musculus", "assay": "Antiinflammatory activity in carrageenan-induced Kunming mouse model of paw edema assessed as paw volume at 1 mg/kg, ip pretreated for 1 hr followed by carrageenan administration and measured after 1 hr by digital plethysmometer (reference value: 0.395 +/- 0.017 mL)", "format": "functional", "conditions": "time 2 hrs"}, "Mus musculus [24]": {"tested_on": "Mus musculus", "assay": "Antioxidant activity in carrageenan-induced Kunming mouse model of paw edema assessed as reduction in MDA level in paw tissue at 1 to 30 mg/kg, ip pretreated for 1 hr followed by carrageenan administration and measured after 5 hrs by ELISA", "format": "functional, organism-based", "conditions": "dose 1-30 mg/kg, time 6.0 hrs"}, "Mus musculus [25]": {"tested_on": "Mus musculus", "assay": "Antiinflammatory activity in carrageenan-induced Kunming mouse model of paw edema assessed as paw volume at 30 mg/kg, ip pretreated for 1 hr followed by carrageenan administration and measured immediately by digital plethysmometer (reference value: 0.116 +/- 0.042 mL)", "format": "functional"}, "Mus musculus [26]": {"tested_on": "Mus musculus", "assay": "Antioxidant activity in carrageenan-induced Kunming mouse model of paw edema assessed as increase in SOD activity in paw tissue at 1 to 30 mg/kg, ip pretreated for 1 hr followed by carrageenan administration and measured after 5 hrs by ELISA", "format": "functional, organism-based", "conditions": "dose 1-30 mg/kg, time 6.0 hrs"}, "Mus musculus [27]": {"tested_on": "Mus musculus", "assay": "Antiinflammatory activity in carrageenan-induced Kunming mouse model of paw edema assessed as edema inhibition at 10 mg/kg, ip pretreated for 1 hr followed by carrageenan administration and measured after 3 hrs relative to control", "format": "functional", "conditions": "time 4 hrs"}, "Mus musculus [28]": {"tested_on": "Mus musculus", "assay": "Antiinflammatory activity in carrageenan-induced Kunming mouse model of paw edema assessed as edema inhibition at 1 mg/kg, ip pretreated for 1 hr followed by carrageenan administration and measured after 1 hr relative to control", "format": "functional", "conditions": "time 2 hrs"}}, "note": "Activity calls are given as the source filed them. No cut-off for these calls is given here.", "data": [{"compound": "O=C(/C=C/c1ccc(O)c(O)c1)NCCCN1CCc2cc(Cl)ccc21", "values": [{"measurement": "Activity", "setting": "RAW264.7 [1]", "value": "Active"}, {"measurement": "Activity", "setting": "RAW264.7 [2]", "value": "Active"}, {"measurement": "inhibition in vivo at 1 mg/kg", "setting": "Mus musculus [3]", "value": 45.1, "unit": "%"}, {"measurement": "Activity", "setting": "Mus musculus [4]", "value": 0.175, "unit": "mL"}, {"measurement": "Activity", "setting": "Mus musculus [5]", "value": 0.143, "unit": "mL"}, {"measurement": "inhibition", "setting": "RAW264.7 [6]", "value": "Active"}, {"measurement": "Activity", "setting": "Mus musculus [7]", "value": "Dose-Dependent Effect"}, {"measurement": "Activity", "setting": "Mus musculus [8]", "value": 0.243, "unit": "mL"}, {"measurement": "Activity", "setting": "RAW264.7 [9]", "value": "Active"}, {"measurement": "Activity", "setting": "Mus musculus [10]", "value": "Active"}, {"measurement": "Activity", "setting": "Mus musculus [11]", "value": 0.131, "unit": "mL"}, {"measurement": "Activity", "setting": "RAW264.7 [12]", "value": "inactive"}, {"measurement": "Activity", "setting": "RAW264.7 [13]", "value": "~100", "unit": "%"}, {"measurement": "Activity", "setting": "RAW264.7 [14]", "value": "Dose-Dependent Effect"}, {"measurement": "IC50", "setting": "RAW264.7 [14]; RAW264.7, 24 h", "value": 1.73, "unit": "µM"}, {"measurement": "Activity", "setting": "Mus musculus [15]", "value": 0.189, "unit": "mL"}, {"measurement": "inhibition", "setting": "RAW264.7 [16]", "value": "Active"}, {"measurement": "inhibition in vivo at 30 mg/kg", "setting": "Mus musculus [17]", "value": 58.1, "unit": "%"}, {"measurement": "inhibition in vivo at 10 mg/kg", "setting": "Mus musculus [18]", "value": 86.6, "unit": "%"}, {"measurement": "Activity", "setting": "Mus musculus [19]", "value": 0.138, "unit": "mL"}, {"measurement": "Activity", "setting": "Mus musculus [20]", "value": 0.128, "unit": "mL"}, {"measurement": "viability at 24 h, 10 µM", "setting": "[21]", "value": "> 85", "unit": "%"}, {"measurement": "Activity", "setting": "Mus musculus [22]", "value": 0.158, "unit": "mL"}, {"measurement": "Activity", "setting": "Mus musculus [23]", "value": 0.32, "unit": "mL"}, {"measurement": "Activity", "setting": "Mus musculus [24]", "value": "Active"}, {"measurement": "Activity", "setting": "Mus musculus [25]", "value": 0.131, "unit": "mL"}, {"measurement": "Activity", "setting": "Mus musculus [26]", "value": "Active"}, {"measurement": "inhibition in vivo at 10 mg/kg", "setting": "Mus musculus [27]", "value": 82.8, "unit": "%"}, {"measurement": "inhibition in vivo at 1 mg/kg", "setting": "Mus musculus [28]", "value": 27.6, "unit": "%"}]}]}
